Measured values from ChEMBL document CHEMBL4308851, “Alkyl-guanidine Compounds as Potent Broad-Spectrum Antibacterial Agents: Chemical Library Extension and Biological Characterization” (J Med Chem, 2018).
≈ marks a conversion by molar mass, not a printed value. Calls of active or inactive are those of the source. The calls are words filed in the database; no cut-off is given here.

Columns and labels:
Escherichia coli [1] = test: Disruption of inner membrane integrity in Escherichia coli MG1655 assessed as induction of […] conversion at 256 ug/ml measured at 10 mins intervals for 1 hr; format: functional, organism-based; conditions: K-12 substr. MG1655
Pseudomonas aeruginosa [2] = test: Disruption of inner membrane integrity in Pseudomonas aeruginosa PAO1 ATCC 15692 co-expressing pMP2200::PrrnB plasmid assessed as induction of OPNG conversion at 256 ug/ml measured at 10 mins intervals for 1 hr; format: functional, organism-based
Acinetobacter baumannii [3] = test: Disruption of inner membrane integrity in Acinetobacter baumannii ATCC 19606 co-expressing pMP2200::PrrnB plasmid assessed as induction of […] conversion at 256 ug/ml measured at 10 mins intervals for 1 hr; format: functional, organism-based; conditions: ATCC 19606 = CIP 70.34 = JCM 6841
Pseudomonas aeruginosa [4] = test: Antibiofilm activity against Pseudomonas aeruginosa PAO1 ATCC 15692 at half MIC concentration after 24 hrs by crystal violet-based assay; format: functional, organism-based
Escherichia coli [5] = test: Disruption of Escherichia coli MG1655 ATCC 47076 outer membrane integrity assessed as induction of NPN uptake after 30 mins by NPN fluorescence-based assay; format: functional, organism-based; conditions: K-12 substr. MG1655 ATCC 47076
Bacillus spizizenii = test: Antibacterial activity against Bacillus subtilis ATCC 6633 after 18 hrs by microdilution broth method; format: functional; conditions: ATCC 6633, 18 h
Acinetobacter baumannii [6] = test: Antibiofilm activity against Acinetobacter baumannii ATCC 19606 at half MIC concentration after 24 hrs by crystal violet-based assay; format: functional, organism-based; conditions: ATCC 19606 = CIP 70.34 = JCM 6841
Streptococcus pyogenes = test: Antibacterial activity against Streptococcus pyogenes ATCC 12344 after 18 hrs by microdilution broth method; format: functional; conditions: ATCC 12344, 18 h
Escherichia coli [7] = test: Antibacterial activity against Escherichia coli CCUG after 18 hrs by microdilution broth method
Pseudomonas aeruginosa [8] = test: Antibiofilm activity against Pseudomonas aeruginosa PAO1 ATCC 15692 assessed as effect on biofilm 3D structures at half MIC concentration after 24 hrs by AO-staining based confocal microscopy; format: functional, organism-based
[9] = Hemolytic activity against human erythrocytes assessed as induction of hemolysis at 64 ug/ml after 30 mins; format: cell-based, Erythrocyte; conditions: read-out: Activity
Escherichia coli [10] = test: Antibiofilm activity against Escherichia coli MG1655 ATCC 47076 assessed as effect on biofilm 3D structures at half MIC concentration after 24 hrs by AO-staining based confocal microscopy; format: functional, organism-based; conditions: K-12 substr. MG1655 ATCC 47076
Klebsiella pneumoniae [11] = test: Antibacterial activity against Klebsiella pneumoniae ATCC […] after 18 hrs by microdilution broth method; format: functional
Staphylococcus aureus = test: Antibacterial activity against Staphylococcus aureus ATCC 25923 after 18 hrs by microdilution broth method; format: functional; conditions: ATCC 25923, 18 h
Acinetobacter baumannii [12] = test: Antibiofilm activity against Acinetobacter baumannii ATCC 19606 assessed as effect on biofilm 3D structures at half MIC concentration after 24 hrs by AO-staining based confocal microscopy; format: functional, organism-based; conditions: ATCC 19606 = CIP 70.34 = JCM 6841
Escherichia coli [13] = test: Antibiofilm activity against Escherichia coli MG1655 ATCC 47076 at half MIC concentration after 24 hrs by crystal violet-based assay; format: functional, organism-based; conditions: K-12 substr. MG1655 ATCC 47076
Acinetobacter baumannii [14] = test: Antibacterial activity against Acinetobacter baumannii ATCC 17978 after 18 hrs by microdilution broth method; format: functional; conditions: ATCC 17978, 18 h
Pseudomonas aeruginosa [15] = test: Antibacterial activity against Pseudomonas aeruginosa ATCC 27853 after 18 hrs by microdilution broth method; format: functional; conditions: ATCC 27853, 18 h
Enterococcus faecalis = test: Antibacterial activity against Enterococcus faecalis ATCC 19433 after 18 hrs by microdilution broth method; format: functional; conditions: ATCC 19433, 18 h
Pseudomonas aeruginosa [16] = test: Disruption of Pseudomonas aeruginosa PAO1 ATCC 15692 outer membrane integrity assessed as induction of NPN uptake after 30 mins by NPN fluorescence-based assay; format: functional, organism-based
Acinetobacter baumannii [17] = test: Disruption of Acinetobacter baumannii ATCC 19606 outer membrane integrity assessed as induction of NPN uptake after 30 mins by NPN fluorescence-based assay; format: functional, organism-based; conditions: ATCC 19606 = CIP 70.34 = JCM 6841
[18] = tested on: Stenotrophomonas maltophilia; test: Antibacterial activity against Stenotrophomonas maltophilia isolate 634/08 after 18 hrs by microdilution broth method; format: functional; conditions: isolate 634/08, 18 h
Klebsiella pneumoniae [19] = test: Antibacterial activity against Klebsiella pneumoniae isolate SI-081 after 18 hrs by microdilution broth method; format: functional; conditions: isolate SI-081, 18 h
Burkholderia cepacia = test: Antibacterial activity against Burkholderia cepacia isolate SI-R2 after 18 hrs by microdilution broth method; format: functional; conditions: isolate SI-R2, 18 h
Enterobacter cloacae = test: Antibacterial activity against Enterobacter cloacae isolate VA-417/02 after 18 hrs by microdilution broth method; format: functional; conditions: isolate VA-417/02, 18 h
Acinetobacter baumannii [20] = test: Antibacterial activity against Acinetobacter baumannii isolate AC-54/97 after 18 hrs by microdilution broth method; format: functional; conditions: isolate AC-54/97, 18 h

| Structure (SMILES) | MIC (Bacillus spizizenii) [µg/mL] | MIC (Streptococcus pyogenes) [µg/mL] | MIC (Escherichia coli [7]) [µg/mL] | MIC (Klebsiella pneumoniae [11]) [µg/mL] | MIC (Staphylococcus aureus) [µg/mL] | MIC (Acinetobacter baumannii [14]) [µg/mL] | MIC (Pseudomonas aeruginosa [15]) [µg/mL] | MIC (Enterococcus faecalis) [µg/mL] | further results |
| --- | --- | --- | --- | --- | --- | --- | --- | --- | --- |
| CCCCCCCCCCCCOS(=O)(=O)[O-].[Na+] |  |  |  |  |  |  |  |  | Activity (Escherichia coli [1]): Active; Activity (Pseudomonas aeruginosa [2]): Active; Activity (Acinetobacter baumannii [3]): Active |
| N=C(N)NCCCCCCCCNCCCCCCCCNC(=N)NCC1CC1 | 64 (≈ 156 µM) | > 64 | 64 (≈ 156 µM) | > 64 | > 64 | > 64 | > 64 | > 64 | Activity (Pseudomonas aeruginosa [4]): inactive; Activity (Escherichia coli [5]): Dose-dependent effect; Activity (Acinetobacter baumannii [6]): inactive; Activity (Pseudomonas aeruginosa [8]): inactive; hemolysis at 0.5 h, 64 ug/ml [9]: 0 to 7%; Activity (Escherichia coli [1]): inactive; Activity (Escherichia coli [10]): inactive; Activity (Acinetobacter baumannii [12]): inactive; Activity (Escherichia coli [13]): inactive; Activity (Pseudomonas aeruginosa [2]): inactive; Activity (Pseudomonas aeruginosa [16]): Dose-dependent effect; Activity (Acinetobacter baumannii [3]): inactive; Activity (Acinetobacter baumannii [17]): Dose-dependent effect |
| CC(C)(C)OC(=O)/N=C(/NCCCCCCCCN(CCCCCCCCN/C(=N/C(=O)OC(C)(C)C)NC(=O)OC(C)(C)C)C(=O)N(CCCCCCCCN/C(=N/C(=O)OC(C)(C)C)N(CC1CC1)C(=O)OC(C)(C)C)CCCCCCCCN/C(=N/C(=O)OC(C)(C)C)N(CC1CC1)C(=O)OC(C)(C)C)NC(=O)OC(C)(C)C | ≥ 256 | ≥ 256 | ≥ 256 | ≥ 256 | ≥ 256 | ≥ 256 | ≥ 256 | ≥ 256 | MIC [18]: ≥ 256 µg/mL; MIC (Klebsiella pneumoniae [19]): ≥ 256 µg/mL; MIC (Burkholderia cepacia): ≥ 256 µg/mL; MIC (Enterobacter cloacae): ≥ 256 µg/mL; MIC (Acinetobacter baumannii [20]): ≥ 256 µg/mL |
| CCCCCCCCCC(=O)N[C@@H](Cc1c[nH]c2ccccc12)C(=O)N[C@H](CC(N)=O)C(=O)N[C@@H](CC(=O)O)C(=O)N[C@@H]1C(=O)NCC(=O)N[C@@H](CCCN)C(=O)N[C@@H](CC(=O)O)C(=O)N[C@H](C)C(=O)N[C@@H](CC(=O)O)C(=O)NCC(=O)N[C@H](CO)C(=O)N[C@@H]([C@H](C)CC(=O)O)C(=O)N[C@@H](CC(=O)c2ccccc2N)C(=O)O[C@@H]1C | 1 (≈ 0.617 µM) | 0.12 (≈ 0.074 µM) |  |  | 0.5 (≈ 0.309 µM) |  |  | 1 (≈ 0.617 µM) |  |
| N=C(N)NCCCCCCN(CCCCCCNC(=N)NCC1CC1)C(=O)N(CCCCCCNC(=N)N)CCCCCCNC(=N)NCC1CC1 | 4 (≈ 5.46 µM) | 2 (≈ 2.73 µM) | 16 (≈ 21.8 µM) | 32 (≈ 43.6 µM) | 4 (≈ 5.46 µM) | 128 (≈ 175 µM) | 256 (≈ 349 µM) | 32 (≈ 43.6 µM) |  |
| CNC(=O)NC(=N)NCCCCCCCCN(CCCCCCCCNC(=N)NC(=O)NC)C(=O)N(CCCCCCCCNC(=N)NCC1CC1)CCCCCCCCNC(=N)NCC1CC1 | 2 (≈ 2.08 µM) | 2 (≈ 2.08 µM) | 4 (≈ 4.17 µM) | 4 (≈ 4.17 µM) | 2 (≈ 2.08 µM) | 8 (≈ 8.34 µM) | 16 (≈ 16.7 µM) | 4 (≈ 4.17 µM) |  |
| CN[C@H](CC(C)C)C(=O)N[C@H]1C(=O)N[C@@H](CC(N)=O)C(=O)N[C@H]2C(=O)N[C@H]3C(=O)N[C@H](C(=O)N[C@H](C(=O)O)c4cc(O)cc(O)c4-c4cc3ccc4O)[C@H](O)c3ccc(c(Cl)c3)Oc3cc2cc(c3O[C@@H]2O[C@H](CO)[C@@H](O)[C@H](O)[C@H]2O[C@H]2C[C@](C)(N)[C@H](O)[C@H](C)O2)Oc2ccc(cc2Cl)[C@H]1O [VANCOMYCIN] | 0.5 (≈ 0.345 µM) |  |  |  |  |  |  | 1 (≈ 0.69 µM) |  |
| CCNC(=N)NCCCCCCN(CCCCCCNC(=N)N)C(=O)N(CCCCCCNC(=N)NCC)CCCCCCNC(=N)NCC | 16 (≈ 22.6 µM) | 4 (≈ 5.64 µM) | 64 (≈ 90.3 µM) | 128 (≈ 181 µM) | 32 (≈ 45.1 µM) | 256 (≈ 361 µM) | > 256 | 64 (≈ 90.3 µM) |  |
